This note sets out measurements from patent US20230391785A1, “NITROGEN-CONTAINING HETEROCYCLIC COMPOUND, METHOD FOR PREPARING SAME AND USE OF SAME” (280 Bio, Inc., priority 2021, published 2023).

Common to all, as to format: cell-based
Assay [1] concerns NCI-H358 cells (KRAS G12C mutation). As to the kind of experiment: Proliferation inhibition measured by CTG (CellTiter Glo), NCI-H358. The following applies: Homo sapiens. An outline of the steps:
(§1)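 Growth inhibition is assessed over 120 hours of compound treatment using ten 3-fold serially diluted concentrations. IC50 is calculated from CellTiter Glo luminescence curves.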

Assay [2] has as its system AsPC-1 pancreatic cancer cell line (KRAS G12D mutation). As to the kind of experiment: Proliferation inhibition measured by CTG (CellTiter Glo), AsPC-1. Conditions: Homo sapiens, ASPC1. The source says:
(§2) NCI-H358 is a human non-small cell lung cancer cell line with KRAS G12C mutation; PANC-1 and AsPC-1 are pancreatic cancer cell lines with KRAS G12D mutation; AGS is a gastric cancer cell line with KRAS G12D mutation; A427 is a lung cancer cell line with KRAS G12D mutation; THP-1 is a leukemia cell line with NRAS G12D mutation; Hs 578T is a breast cancer cell line with HRAS G12D mutation; SW480 is a colon cancer cell lines with KRAS G12V mutation; A375 is a wild type malignant melanoma cell line. The proliferation inhibitory effect of the compounds on various mutations was evaluated by determining the proliferation inhibitory activity of the compounds on these cell lines.
(§3) The assay was conducted on either 384-well plates or 96-well plates. The procedures are as follows:
(§4) The cell suspensions were added to 384- or 96-well plates (384-well plate: 40 μL; 96-well plate: […]) except for peripheral wells. The plates were incubated in a carbon dioxide incubator overnight. Prepared compounds (10 concentration gradients by serial 3-fold dilution) were added to the wells. The cell plates were incubated in a carbon dioxide incubator for 120 hours. CellTiter Glo reagent (384 well plate: 25 μL; 96 well plate: 100 μL) was added to the 384- or 96-well plates. The plates were shaken for 10 minutes away from light, and incubated for 10 minutes. The plates were read by EnVision system. Inhibition curves were plotted using XLFit and IC50 values were calculated. “IC50>10 μM” is denoted by “*”, “10 μM≥IC50>1 μM” is denoted by “**”, “1 μM≥IC50>100 nM” is denoted by “***”, and “IC50≤100 nM” is denoted by “****”.

In assay [3] the test system is AGS gastric cancer cell line (KRAS G12D mutation). The assay can be described thus: Proliferation inhibition measured by CTG (CellTiter Glo), AGS. An outline of the steps: as §1
The subject of assay [4] is A427 lung cancer cell line (KRAS G12D mutation). As to the kind of experiment: Proliferation inhibition measured by CTG (CellTiter Glo), A427. Conditions: Homo sapiens, A-427.
Description: as §2, §3, §4

The test system of assay [5] is A375 wild type malignant melanoma cell line. The assay can be described thus: Proliferation inhibition measured by CTG (CellTiter Glo), A375. The following applies: Homo sapiens, A-375. An outline of the steps:
as §1

The test system of assay [6] is Hs 578T breast cancer cell line (HRAS G12D mutation). As to the kind of experiment: Proliferation inhibition measured by CTG (CellTiter Glo), Hs 578T. The following applies: Homo sapiens.
Description: as §2, §3, §4

Assay [7] concerns THP-1 leukemia cell line (NRAS G12D mutation). The assay can be described thus: Proliferation inhibition measured by CTG (CellTiter Glo), THP-1. The following applies: Homo sapiens.
Description: as §2, §3, §4

Assay [8] concerns A549 cells (G12S). As to the kind of experiment: Proliferation inhibition measured by CTG (CellTiter Glo), A549. Conditions: Homo sapiens, Table 2, 120 hours incubation.
In assay [9] the test system is RPMI 8226 cells (G12A). As to the kind of experiment: Proliferation inhibition measured by CTG (CellTiter Glo), RPMI 8226. Conditions: Homo sapiens, Table 2, 120 hours incubation.
Assay [10] relates to SW480 colon cancer cell line (KRAS G12V mutation). As to the kind of experiment: Proliferation inhibition measured by CTG (CellTiter Glo), SW480. The following applies: Homo sapiens, Table 2, 120 hours incubation, read-out: IC50 SW480 (G12V).
Description: as §2, §3, §4

Assay [11] concerns NCI-H647 cells (G13D). The assay can be described thus: Proliferation inhibition measured by CTG (CellTiter Glo), NCI-H647. The following applies: Homo sapiens, Table 2, 120 hours incubation.
The test system of assay [12] is PANC-1 pancreatic cancer cell line (KRAS G12D mutation). The assay can be described thus: Proliferation inhibition measured by CTG (CellTiter Glo), PANC-1. Conditions: Homo sapiens, Table 2, 120 hours incubation.
Description: as §2, §3
The cell suspensions were added to 384- or 96-well plates (384-well plate: 40 μL; 96-well plate: […]) except for peripheral wells. The plates were incubated in a carbon dioxide incubator overnight. Prepared compounds (10 concentration gradients by serial 3-fold dilution) were added to the wells. The cell plates were incubated in a carbon dioxide incubator for 120 hours. CellTiter Glo reagent (384 well plate: 25 μL; 96 well plate: 100 μL) was added to the 384- or 96-well plates. […] The plates were read by EnVision system. Inhibition curves were plotted using XLFit and IC50 values were calculated. […]

Where [13] appears, read: Table 1, CTG, 120 hours incubation, class symbol, read-out: IC50 (H358).
Where [14] appears, read: Table 1, CTG, 120 hours incubation, class symbol.
Where [15] appears, read: Table 1, CTG, 120 hours incubation, class symbol, read-out: IC50 (AGS).
The mark [16] stands for this setting: Table 1, CTG, 120 hours incubation, class symbol, read-out: IC50 (A375).
The mark [17] stands for this setting: Table 1, number in parentheses, unit not given in Table 1 (legend and Table 2 use μM).

Where two headings read alike, the source gives them in different places.

As to `CN1CCC[C@H]1COc1nc2c(c(N3CCn4cnc(C#N)c4C3)n1)CCN(c1cccc3cccc(Cl)c13)C2` [Compound 9], the IC50 was no more than 0.1 µM in assay [1] (setting [13]); no more than 0.1 µM in assay [2] (setting [14]); no more than 0.1 µM in assay [3] (setting [15]); no more than 0.1 µM in assay [4] (setting [14]); 0.1 to 1 µM in assay [5] (setting [16]).
For the compound `CC1CN(c2nc(OC[C@@H]3CCCN3C)nc3c2CCN(c2cccc4cccc(Cl)c24)C3)Cc2cncn21` (some centres unmarked) [Compound 11], the IC50 in assay [1] (setting [13]), in assay [2] (setting [14]), in assay [4] (setting [14]) and in assay [5] (setting [16]) was 0.1 to 1 µM each time.
Take `CN1CCC[C@H]1COc1nc2c(c(N3CCn4cncc4C3)n1)CCN(c1cccc3cccc(Cl)c13)C2` [Compound 2]: the half-maximal inhibitory concentration (IC50) in [1] (setting [13]) was no more than 0.1 µM; in assay [1] (Table 1, number in parentheses, no unit printed in Table 1 (Table 2 gives the same values of compound 2 in μM), read-out: IC50 (H358)) it was 0.063 µM; in assay [1] (Table 2, CTG, 120 hours incubation, read-out: IC50 H358 (G12C)), 0.063 µM; in [2] (setting [17]) it was 0.139 µM; in assay [2] (setting [14]), 0.1 to 1 µM; in assay [3] (Table 1, number in parentheses, unit not given in Table 1 (Table 2 gives the same value in μM), read-out: IC50 (AGS)), 0.092 µM. The half-inhibitory concentration (IC50) is no more than 0.1 µM in [3] (setting [15]); 0.092 µM in assay [3] (Table 2, CTG, 120 hours incubation, read-out: IC50 AGS (G12D)); 0.07 µM in assay [4] (setting [17]); no more than 0.1 µM in [4] (setting [14]); 0.1 to 1 µM in assay [6] (setting [14]); 0.237 µM in [6] (setting [17]). In addition, the IC50 in assay [7] (setting [14]) was no more than 0.1 µM; in [7] (setting [17]) it was 0.067 µM; in [5] (Table 1, number in parentheses, unit not given in Table 1 (Table 2 gives the same value in μM), read-out: IC50 (A375)), 0.167 µM; in assay [5] (setting [16]), 0.1 to 1 µM; in [5] (Table 2, CTG, 120 hours incubation, read-out: IC50 A375 (wide type)), 0.167 µM; in [8] it was 0.253 µM. Further, the IC50 in assay [9] is 0.128 µM; in [10] it was 0.098 µM; in [11], 0.115 µM; in [12], 0.193 µM.
Turning to `CN1CCC[C@H]1COc1nc2c(c(N3CCn4nncc4C3)n1)CCN(c1cccc3cccc(Cl)c13)C2` [Compound 10], the IC50 in assay [1] (setting [13]), in assay [2] (setting [14]), in assay [4] (setting [14]) and in assay [5] (setting [16]) was 0.1 to 1 µM in each case.
